{"source": "patent US11576987B2", "about": "“Compositions and methods of treating melanoma” (UNIVERSITY OF IOWA RESEARCH FOUNDATION, priority 2016, dated 2023)", "key": {"[1]": {"molecular_target": "T1, MCR1 (Homo sapiens, UniProt Q01726)", "T1 construct": "endogenous in cells; host or cells: SK-MEL3 BRAF V600E and A2058 BRAF V600E human melanoma cells", "assay": "Radiobinding assay with [125I]-NDP-a-MSH after drug incubation", "assay_type": "cell-based", "conditions": "SK-MEL3 and A2058 BRAF^V600E, 4 hours incubation, relative to untreated controls", "experimental": "FIGS. 11A-11D. MCR1 expression can be enhanced in human melanoma cells by incubation with PBA and FDA approved melanoma drugs. (A-B) Flow cytometry analysis of MC1R expression in human melanoma cells: (A) SK-MEL3 BRAF^V600E; (B) A2058 BRAF^V600E; incubated for 4 hours with clinically-relevant concentrations of BRAFi: PLX4032 (10 μM), GSK2118436 (2 μM); MEKi: GDC0973 (2 μM), GSK1120212 (2 μM); 4-PBA (4 mM). Cells were stained with anti-MC1R-phycoerythrin (PE) monoclonal antibody conjugate. Fluorescence intensity was corrected by PE-conjugated isotype. Data were expressed as normalized mean fluorescence intensity (NMFI; n=4±SD; *p<0.05). […] (C) SK-MEL3 BRAF^V600E; and (D) A2058 BRAF^V600E was confirmed by radiobinding assay using MCR1-specific peptide [^125I]-NDP-a-MSH following incubation for 4 hours with PBA and FDA approved drugs (as in FIG. 10). […] Binding expressed as radioactivity bound relative to untreated controls (same cells) (n=4±SD; *p<0.05).\nPCR measurements give information on the cellular response to drug treatments, but competitive binding assays convey a specific measure of changes in receptor expression (protein level) and changes in ligand-binding interactions as a result of drug treatments (FIGS. 11A-11B). After drug treatments, receptor expression is determined using synthetic α-MSH analog [^125I]-Nle^4-D-Phe^7-alpha-MSH ([^125I]-NDP-MSH) routinely as in FIG. 16D. […]"}, "[2]": {"test_system": "MCR1 expression", "assay": "Flow cytometry analysis of MCR1 expression in malignant melanoma cells", "assay_type": "cell-based, human", "conditions": "BRAF^V600E mutant melanoma cell lines (A2058, A375), 3 mmole 4-PBA, 4 h and 24 h", "experimental": "FIG. 1: Flowcytometry analysis of MCR1 expression in A375 malignant melanoma cells. A375 cells were treated with either 2 μmole Vemurafenib or 3 mmole 4-PBA for 4 h and 24 h (n=3). The treated and untreated (control) cells were stained with anti-MC1R-phycoerythrin (PE) monoclonal antibody conjugate. Fluorescence intensity was corrected by auto-fluorescence of cells without staining and data were expressed as relative (vs control) fluorescence intensity±SD. Statistical significance was determined by Student's T-test (*P<0.05; **P<0.01; ***P<0.001; ****P<0.0001).\n(§1) FIG. 2: Flowcytometry analysis of MCR1 expression in A2058 malignant melanoma cells. […] Fluorescence intensity was corrected by auto-fluorescence of cells without staining and data were expressed as relative (vs control) fluorescence intensity±SD. Statistical significance was determined by Student's T-test (*P<0.05; **P<0.01; ***P<0.001; ****P<0.0001).\nas §1, with “3:” for “2:”, “SK-Me13” for “A2058”, “****P<0.0001, N. S. non-significant).” for “****P<0.0001).”\nFIGS. 11A-11D. […] Fluorescence intensity was corrected by PE-conjugated isotype. […]"}, "[3]": {"conditions": "cited from earlier work"}, "[4]": {"test_system": "BRAFi-resistant A375VR cells", "assay": "Clonogenic survival of BRAFi-resistant melanoma cells", "assay_type": "cell-based, human", "conditions": "in combination with 5 μM vemurafenib, up to 6 days, PBA as low as 500 μM", "experimental": "FIGS. 13A-13B. PBA treatment promotes cell death of BRAFi-resistant metastatic melanoma and upregulates MCR1 expression in a time dpe. (A) BRAFi-resistant A375VR cells were incubated with 5 μM vemurafenib in combination with ER-stress-relieving drug 4-PBA for up to 6 days. […] (B) Flow cytometry analysis of MCR1 expression in A2058 and A375 malignant melanoma cells. Cells were treated with 3 mmole 4-PBA for 4 h and 24 h (n=3). The treated and untreated (control) cells were stained with anti-MC1R-phycoerythrin (PE) monoclonal antibody conjugate. Fluorescence intensity was corrected by auto-fluorescence of cells without staining and data were expressed as relative fluorescence intensity (IF) (vs. control)±SD.\nAccumulation of misfolded-proteins causes upregulation and detachment of ER resident protein GRP78 from ER sensors proteins—activating the unfolded protein response (UPR) and downstream signaling pathways (including autophagy). […] Thus, the potential for a pharmacological treatment that would sensitize BRAFi-resistant cells to BRAFi by reducing ER-stress was considered. BRAFi-resistant A375VR melanoma cells were incubated with BRAFi vemurafenib alone and in combination with ER-stress relieving PBA."}}, "note": "Counter-ions that a name gives are not always drawn.", "data": [{"smiles": "O=C(O)CCCc1ccccc1", "note": "[PBA, 4-phenylbutyric acid, sodium salt]", "values": [{"measurement": "binding of MCR1-specific peptide [125I]-NDP-a-MSH", "setting": "[1]", "result": "increases binding of MCR1-specific peptides"}, {"measurement": "time dependency of MCR1 expression", "setting": "[2]", "result": "significant (time dependent) increase in MCR1 expression"}, {"measurement": "solubility in acetone and diethyl ether", "setting": "[3]", "result": "practically insoluble"}, {"measurement": "solubility in methanol", "setting": "[3]", "result": "freely soluble"}, {"measurement": "solubility in water", "setting": "[3]", "result": "soluble in water"}, {"measurement": "clonogenic cell death", "setting": "[4]", "result": "~90", "unit": "%"}]}]}
